# Measured values as given in CN103483288A, “一类3,4-二氯异噻唑双酰肼类化合物及其制备方法和用途” (priority 2013, dated 2014).
# Like-named read-outs stand apart in the source and are kept apart here.
# Assays:
# Assay type in all cases: in vivo
# [1] = system: tobacco mosaic virus (烟草花叶病毒(TMV)); test: 直接抗TMV活性, 半叶法; conditions: for inhibition at 100 µg/mL: Tobacco mosaic virus
# [2] = system: tobacco mosaic virus (烟草花叶病毒(TMV)); test: 诱导烟草抗TMV活性 (活体诱导); conditions: for inhibition at 100 µg/mL: Tobacco mosaic virus, read-out: antiviral activity (inhibition rate): induction activity
# diamondback moth (小菜蛾) = test: 小菜蛾杀虫活性, 叶片药膜法; conditions: for mortality at 200 µg/mL: Plutella xylostella, read-out: kill rate
# [3] = TMV, 100 mg/L, read-out: antiviral activity (inhibition rate): curative activity
# [4] = TMV, 100 mg/L, read-out: antiviral activity (inhibition rate): inactivation activity
# [5] = TMV, 100 mg/L, read-out: antiviral activity (inhibition rate): protective activity
# [6] = induced resistance of tobacco to TMV, 100 mg/L
# [7] = induced resistance of tobacco to TMV
# [8] = 200 mg/L, 2nd instar larvae, 96 h or 120 h
SMILES,direct antiviral activity (in words) ([1]; TMV),"inhibition at 100 µg/mL [1, 3] [%]","inhibition at 100 µg/mL [1, 4] [%]","inhibition at 100 µg/mL [1, 5] [%]","inhibition at 100 µg/mL [2, 6] [%]","induction activity (in words) [2, 7]",kill rate (diamondback moth (小菜蛾); [8]) [%],further results
NC(=O)c1ncn([C@@H]2O[C@H](CO)[C@@H](O)[C@H]2O)n1 [病毒唑],具有很好的直接抗病毒活性,44.1 ± 2.94,25.6 ± 3.87,46 ± 4.2,27.1 ± 4.39,几乎没有诱导活性,,
"Cc1ccc(NC(=O)c2snnc2C)cc1Cl [TDL, 噻酰菌胺]",,23.5 ± 4.41,20.5 ± 3.88,20.1 ± 6.41,47.5 ± 3.75,具有很好的诱导烟草产生对TMV的抗性,,"antiviral activity (inhibition rate): induction activity [2, 6]: 47%"
CNC(=O)c1cc(Cl)cc(C)c1NC(=O)c1cc(Br)nn1-c1ncccc1Cl [氯虫苯甲酰胺],,,,,,,100,mortality at 200 µg/mL (diamondback moth (小菜蛾); [8]): 100%
CNCC(=O)NC(CO)C(=O)NC1C(C(N)=O)OC(n2ccc(N)nc2=O)C(O)C1O (stereo not shown) [宁南霉素],具有很好的直接抗病毒活性,,,,,几乎没有诱导活性,,inhibition at 100 µg/mL ([1]; read-out: antiviral activity (inhibition rate): curative activity): 41.7 ± 2.25%; inhibition at 100 µg/mL ([1]; read-out: antiviral activity (inhibition rate): inactivation activity): 43.1 ± 4.07%; inhibition at 100 µg/mL ([1]; read-out: antiviral activity (inhibition rate): protective activity): 42.9 ± 1.59%; inhibition at 100 µg/mL [2]: 25 ± 3.75%
O=[N+]([O-])NC1=NCCN1Cc1ccc(Cl)nc1 [吡虫啉],,,,,,,0,mortality at 200 µg/mL (diamondback moth (小菜蛾)): 0%
